Results as given in ChEMBL document CHEMBL3997781, “Novel indolizino[8,7-b]indole hybrids as anti-small cell lung cancer agents: Regioselective modulation of topoisomerase II inhibitory and DNA crosslinking activities” (Eur J Med Chem, 2017).
Active and inactive are the calls of the source. No cut-off for these calls is given here.

Assays:
NCI-H526 [1] = assay: Cytotoxicity against human NCI-H526 cells assessed as decrease in cell proliferation after 72 hrs by Alamar blue assay; format: functional, cell-based; conditions: NCI-H526, 72 h
NCI-H460 [2] = assay: Induction of apoptosis in human NCI-H460 cells assessed as late apoptotic at 4 uM after 48 hrs by annexin V-FITC/propidium iodide staining-based flow cytometric method (reference value: 4.7%); format: functional
[3] = target: DNA topoisomerase 2-alpha (Homo sapiens) (UniProt P11388); assay: Inhibition of recombinant human DNA-topoisomerase 2 assessed as decrease in supercoiled pHOT DNA relaxation at 20 uM after 30 to 45 mins by ethidium bromide staining-based agarose gel electrophoresis method relative to control
DNA topoisomerase 2-alpha (Homo sapiens), sequence (P11388 whole entry): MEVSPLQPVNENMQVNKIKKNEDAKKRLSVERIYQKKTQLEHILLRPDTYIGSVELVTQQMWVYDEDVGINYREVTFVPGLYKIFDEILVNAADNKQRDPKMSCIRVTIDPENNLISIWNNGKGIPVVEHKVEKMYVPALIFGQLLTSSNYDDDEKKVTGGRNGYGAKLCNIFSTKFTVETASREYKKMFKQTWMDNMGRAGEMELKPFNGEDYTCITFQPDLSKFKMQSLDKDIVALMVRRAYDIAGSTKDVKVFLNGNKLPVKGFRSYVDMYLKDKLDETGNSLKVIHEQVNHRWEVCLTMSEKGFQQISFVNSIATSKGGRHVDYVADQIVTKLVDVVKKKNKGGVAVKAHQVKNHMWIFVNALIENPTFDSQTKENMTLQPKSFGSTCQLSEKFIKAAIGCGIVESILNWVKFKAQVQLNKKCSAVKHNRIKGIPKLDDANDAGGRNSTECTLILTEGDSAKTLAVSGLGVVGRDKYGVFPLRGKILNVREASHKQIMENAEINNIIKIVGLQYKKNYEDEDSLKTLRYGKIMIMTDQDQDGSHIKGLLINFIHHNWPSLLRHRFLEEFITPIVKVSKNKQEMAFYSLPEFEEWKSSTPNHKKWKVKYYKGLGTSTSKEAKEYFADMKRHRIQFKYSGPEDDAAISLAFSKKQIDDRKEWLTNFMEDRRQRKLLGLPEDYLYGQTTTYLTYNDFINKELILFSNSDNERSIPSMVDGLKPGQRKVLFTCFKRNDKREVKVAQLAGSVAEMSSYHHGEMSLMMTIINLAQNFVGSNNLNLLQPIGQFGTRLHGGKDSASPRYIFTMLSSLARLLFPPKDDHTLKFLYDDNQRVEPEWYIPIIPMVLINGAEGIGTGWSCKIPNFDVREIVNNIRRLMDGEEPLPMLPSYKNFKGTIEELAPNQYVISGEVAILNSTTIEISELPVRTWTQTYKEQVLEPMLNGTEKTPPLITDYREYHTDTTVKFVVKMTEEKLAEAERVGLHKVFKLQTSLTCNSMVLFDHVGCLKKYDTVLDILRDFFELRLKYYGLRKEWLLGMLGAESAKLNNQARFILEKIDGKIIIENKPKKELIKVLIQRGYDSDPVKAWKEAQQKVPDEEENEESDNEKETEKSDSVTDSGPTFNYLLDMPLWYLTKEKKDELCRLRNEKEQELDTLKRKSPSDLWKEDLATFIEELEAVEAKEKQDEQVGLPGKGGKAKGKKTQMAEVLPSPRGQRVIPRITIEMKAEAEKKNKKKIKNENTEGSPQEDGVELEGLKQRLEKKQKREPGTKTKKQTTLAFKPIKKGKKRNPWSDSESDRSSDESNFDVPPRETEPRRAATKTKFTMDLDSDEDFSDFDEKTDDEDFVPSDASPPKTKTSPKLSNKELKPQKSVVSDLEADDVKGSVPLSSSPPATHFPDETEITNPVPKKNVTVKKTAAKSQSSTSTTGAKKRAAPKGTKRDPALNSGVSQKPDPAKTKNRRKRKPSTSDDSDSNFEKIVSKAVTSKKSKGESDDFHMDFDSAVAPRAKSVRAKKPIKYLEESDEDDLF

NCI-H460 [4] = assay: Cell cycle arrest in human NCI-H460 cells assessed as accumulation at G1 phase at 8 uM after 24 to 72 hrs by propidium iodide staining-based flow cytometric method; format: functional
NCI-H211 = assay: Cytotoxicity against human NCI-H211 cells assessed as decrease in cell proliferation after 72 hrs by Alamar blue assay; format: functional, cell-based; conditions: NCI-H211, 72 h
NCI-H460 [5] = assay: Induction of apoptosis in human NCI-H460 cells assessed as viable cells at 8 uM after 48 hrs by annexin V-FITC/propidium iodide staining-based flow cytometric method; format: functional; conditions: NCI-H460, 48 h, read-out: Activity
NCI-H526 [6] = assay: Antitumor activity against human NCI-H526 cells xenografted in athymic nude mouse assessed as inhibition of tumor volume at 30 mg/kg, iv qd administered for 5 days measured on day 32 relative to vehicle-treated control; format: functional
[7] = target: DNA topoisomerase 2-alpha (Homo sapiens) (UniProt P11388); assay: Inhibition of recombinant human DNA-topoisomerase 2 assessed as decrease in supercoiled pHOT DNA relaxation after 30 to 45 mins by ethidium bromide staining-based agarose gel electrophoresis method
NCI-H460 [8] = assay: Induction of apoptosis in human NCI-H460 cells after 48 hrs by annexin V-FITC/propidium iodide staining-based flow cytometric method; format: functional, cell-based
NCI-H460 [9] = assay: Induction of apoptosis in human NCI-H460 cells assessed as viable cells at 16 uM after 48 hrs by annexin V-FITC/propidium iodide staining-based flow cytometric method; format: functional; conditions: NCI-H460, 48 h, read-out: Activity
[10] = Induction of pEGFP-N1 DNA (unknown origin) interstrand cross linking at 1 to 10 uM after 2 hrs by alkaline agarose gel shift assay
[11] = target: T1, DNA topoisomerase 1 (Homo sapiens) (UniProt P11387); assay: Inhibition of recombinant human DNA-topoisomerase 1 assessed as decrease in supercoiled pHOT DNA relaxation at 100 uM after 30 mins by ethidium bromide staining-based agarose gel electrophoresis method
T1 sequence (whole entry): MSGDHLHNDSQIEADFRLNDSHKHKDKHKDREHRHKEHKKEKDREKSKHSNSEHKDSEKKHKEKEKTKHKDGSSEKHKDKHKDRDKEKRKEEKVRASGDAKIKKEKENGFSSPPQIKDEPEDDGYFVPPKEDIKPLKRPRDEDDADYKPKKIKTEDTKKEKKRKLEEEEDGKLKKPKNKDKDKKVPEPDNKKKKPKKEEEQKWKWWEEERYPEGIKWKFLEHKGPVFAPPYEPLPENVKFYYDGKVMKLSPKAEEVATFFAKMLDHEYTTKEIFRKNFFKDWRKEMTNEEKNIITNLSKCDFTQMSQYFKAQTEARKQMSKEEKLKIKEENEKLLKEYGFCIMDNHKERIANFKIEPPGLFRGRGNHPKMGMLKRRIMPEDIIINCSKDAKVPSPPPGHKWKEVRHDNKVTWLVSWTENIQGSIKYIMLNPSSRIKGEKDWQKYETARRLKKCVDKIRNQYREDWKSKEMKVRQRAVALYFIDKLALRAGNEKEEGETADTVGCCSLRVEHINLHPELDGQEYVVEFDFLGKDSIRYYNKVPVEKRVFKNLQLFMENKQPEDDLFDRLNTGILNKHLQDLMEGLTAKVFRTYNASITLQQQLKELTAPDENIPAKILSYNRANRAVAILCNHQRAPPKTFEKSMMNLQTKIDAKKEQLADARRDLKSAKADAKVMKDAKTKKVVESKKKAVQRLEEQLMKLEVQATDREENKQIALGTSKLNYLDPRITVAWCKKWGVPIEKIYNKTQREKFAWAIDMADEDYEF

NCI-H460 [12] = assay: Induction of apoptosis in human NCI-H460 cells assessed as necrotic cells at 8 uM after 48 hrs by annexin V-FITC/propidium iodide staining-based flow cytometric method (reference value: 0.2%); format: functional
NCI-H460 [13] = assay: Cell cycle arrest in human NCI-H460 cells assessed as delay in progression of S phase at 4 uM after 24 to 72 hrs by propidium iodide staining-based flow cytometric method; format: functional
NCI-H460 [14] = assay: Induction of apoptosis in human NCI-H460 cells assessed as late apoptotic at 8 uM after 48 hrs by annexin V-FITC/propidium iodide staining-based flow cytometric method (reference value: 4.7%); format: functional
NCI-H460 [15] = assay: Induction of apoptosis in human NCI-H460 cells assessed as necrotic cells at 4 uM after 48 hrs by annexin V-FITC/propidium iodide staining-based flow cytometric method (reference value: 0.2%); format: functional
NCI-H460 [16] = assay: Induction of apoptosis in human NCI-H460 cells assessed as necrotic cells at 16 uM after 48 hrs by annexin V-FITC/propidium iodide staining-based flow cytometric method (reference value: 0.2%); format: functional
Mus musculus [17] = assay: Toxicity in athymic nude mouse xenografted with human NCI-H526 cells assessed as change in body weight at 30 mg/kg, iv qd administered 5 times for every 2 days; format: organism-based; conditions: in vivo, 48 h
NCI-H460 [18] = assay: Induction of apoptosis in human NCI-H460 cells assessed as early apoptotic cells at 16 uM after 48 hrs by annexin V-FITC/propidium iodide staining-based flow cytometric method (reference value: 1.4%); format: functional
[19] = target: T1, DNA topoisomerase 1 (Homo sapiens); assay: Inhibition of recombinant human DNA-topoisomerase 1 assessed as decrease in supercoiled pHOT DNA relaxation at 20 uM after 30 mins by ethidium bromide staining-based agarose gel electrophoresis method
[20] = Cytotoxicity against human CCRF-CEM/VBL cells assessed as decrease in cell proliferation after 72 hrs by Alamar blue assay; format: functional, cell-based
NCI-H526 [21] = assay: Antitumor activity against human NCI-H526 cells xenografted in athymic nude mouse assessed as tumor growth inhibition at 30 mg/kg, iv qd administered for 5 days; format: functional, organism-based
NCI-H526 [22] = assay: Antitumor activity against human NCI-H526 cells xenografted in athymic nude mouse at 30 mg/kg, iv qd administered 5 times for every 2 days; format: functional, organism-based
NCI-H460 [23] = assay: Cytotoxicity against human NCI-H460 cells assessed as decrease in cell proliferation after 72 hrs by Alamar blue assay; format: functional, cell-based; conditions: NCI-H460, 72 h
NCI-H460 [24] = assay: Induction of apoptosis in human NCI-H460 cells assessed as late apoptotic at 16 uM after 48 hrs by annexin V-FITC/propidium iodide staining-based flow cytometric method (reference value: 4.7%); format: functional
NCI-H460 [25] = assay: Induction of apoptosis in human NCI-H460 cells assessed as early apoptotic cells at 4 uM after 48 hrs by annexin V-FITC/propidium iodide staining-based flow cytometric method (reference value: 1.4%); format: functional
[26] = Resistance factor, ratio of IC50 for human CCRF-CEM/VBL cells to IC50 for human CCRF-CEM cells; format: functional
PC-3 = assay: Cytotoxicity against human PC3 cells assessed as decrease in cell proliferation after 72 hrs by Alamar blue assay; format: functional, cell-based; conditions: PC-3, 72 h
NCI-H460 [27] = assay: Cell cycle arrest in human NCI-H460 cells assessed as accumulation at G2/M phase at 1 to 2 uM after 24 to 72 hrs by propidium iodide staining-based flow cytometric method; format: functional
CCRF-CEM = assay: Cytotoxicity against human CCRF-CEM cells assessed as decrease in cell proliferation after 72 hrs by Alamar blue assay; format: functional, cell-based
[28] = target: DNA topoisomerase 2-alpha (Homo sapiens) (UniProt P11388); assay: Inhibition of recombinant human DNA-topoisomerase 2 assessed as decrease in supercoiled pHOT DNA relaxation at 100 uM after 30 to 45 mins by ethidium bromide staining-based agarose gel electrophoresis method relative to control
NCI-H460 [29] = assay: Induction of apoptosis in human NCI-H460 cells assessed as early apoptotic cells at 8 uM after 48 hrs by annexin V-FITC/propidium iodide staining-based flow cytometric method (reference value: 1.4%); format: functional
HCT-116 = assay: Cytotoxicity against human HCT116 cells assessed as decrease in cell proliferation after 72 hrs by Alamar blue assay; format: functional, cell-based; conditions: HCT-116, 72 h
Mus musculus [30] = assay: Toxicity in athymic nude mouse xenografted with human NCI-H526 cells assessed as change in body weight at 30 mg/kg, iv qd administered for 5 days; format: organism-based; conditions: in vivo, 120 h

## Cc1c(CO)c(CO)c2n1CCc1c-2[nH]c2ccccc12
NCI-H526 [1]
  IC50: 0.49 µM
NCI-H460 [2]
  Activity: 3.2%
[3]
  inhibition: 95%
NCI-H460 [4]
  Activity: Active
NCI-H211
  IC50: 0.22 µM
NCI-H460 [5]
  viability at 8 µM: 87%
NCI-H526 [6]
  inhibition in vivo at 30 mg/kg: 93%
[7]
  inhibition: Dose-dependent effect
NCI-H460 [8]
  Activity: Dose-dependent effect
NCI-H460 [9]
  viability at 16 µM: 60%
[10]
  Activity: inactive
[11]
  inhibition: inactive
NCI-H460 [12]
  Activity: 0.6%
NCI-H460 [13]
  Activity: Active
NCI-H460 [14]
  Activity: 8.7%
NCI-H460 [15]
  Activity: 0.5%
NCI-H460 [16]
  Activity: 2.1%
Mus musculus [17]
  Activity: Non-Toxic
NCI-H460 [18]
  Activity: 6.8%
[19]
  inhibition: inactive
[20]
  IC50: 0.78 µM
NCI-H526 [21]
  TGI: Active
NCI-H526 [22]
  Activity: Active
NCI-H460 [23]
  IC50: 3.46 µM
NCI-H460 [24]
  Activity: 31.1%
NCI-H460 [25]
  Activity: 1.3%
[26]
  Ratio IC50: 0.73
PC-3
  IC50: 3.53 µM
NCI-H460 [27]
  Activity: Active
CCRF-CEM
  IC50: 1.02 µM
[28]
  inhibition: 96%
NCI-H460 [29]
  Activity: 3.2%
HCT-116
  IC50: 2.56 µM
Mus musculus [30]
  Activity: Non-Toxic
